IC50 data for two compounds are collected here from ChEMBL document CHEMBL2311538, “Discovery of a class of novel tankyrase inhibitors that bind to both the nicotinamide pocket and the induced pocket” (J Med Chem, 2013).

Usually IC50 stands for the concentration that inhibits the measured activity by half. A lower IC50 goes with greater potency.

Test [1] addresses T1, Poly [ADP-ribose] polymerase tankyrase-1 (Homo sapiens, UniProt O95271).
T1 sequence (O95271 whole entry): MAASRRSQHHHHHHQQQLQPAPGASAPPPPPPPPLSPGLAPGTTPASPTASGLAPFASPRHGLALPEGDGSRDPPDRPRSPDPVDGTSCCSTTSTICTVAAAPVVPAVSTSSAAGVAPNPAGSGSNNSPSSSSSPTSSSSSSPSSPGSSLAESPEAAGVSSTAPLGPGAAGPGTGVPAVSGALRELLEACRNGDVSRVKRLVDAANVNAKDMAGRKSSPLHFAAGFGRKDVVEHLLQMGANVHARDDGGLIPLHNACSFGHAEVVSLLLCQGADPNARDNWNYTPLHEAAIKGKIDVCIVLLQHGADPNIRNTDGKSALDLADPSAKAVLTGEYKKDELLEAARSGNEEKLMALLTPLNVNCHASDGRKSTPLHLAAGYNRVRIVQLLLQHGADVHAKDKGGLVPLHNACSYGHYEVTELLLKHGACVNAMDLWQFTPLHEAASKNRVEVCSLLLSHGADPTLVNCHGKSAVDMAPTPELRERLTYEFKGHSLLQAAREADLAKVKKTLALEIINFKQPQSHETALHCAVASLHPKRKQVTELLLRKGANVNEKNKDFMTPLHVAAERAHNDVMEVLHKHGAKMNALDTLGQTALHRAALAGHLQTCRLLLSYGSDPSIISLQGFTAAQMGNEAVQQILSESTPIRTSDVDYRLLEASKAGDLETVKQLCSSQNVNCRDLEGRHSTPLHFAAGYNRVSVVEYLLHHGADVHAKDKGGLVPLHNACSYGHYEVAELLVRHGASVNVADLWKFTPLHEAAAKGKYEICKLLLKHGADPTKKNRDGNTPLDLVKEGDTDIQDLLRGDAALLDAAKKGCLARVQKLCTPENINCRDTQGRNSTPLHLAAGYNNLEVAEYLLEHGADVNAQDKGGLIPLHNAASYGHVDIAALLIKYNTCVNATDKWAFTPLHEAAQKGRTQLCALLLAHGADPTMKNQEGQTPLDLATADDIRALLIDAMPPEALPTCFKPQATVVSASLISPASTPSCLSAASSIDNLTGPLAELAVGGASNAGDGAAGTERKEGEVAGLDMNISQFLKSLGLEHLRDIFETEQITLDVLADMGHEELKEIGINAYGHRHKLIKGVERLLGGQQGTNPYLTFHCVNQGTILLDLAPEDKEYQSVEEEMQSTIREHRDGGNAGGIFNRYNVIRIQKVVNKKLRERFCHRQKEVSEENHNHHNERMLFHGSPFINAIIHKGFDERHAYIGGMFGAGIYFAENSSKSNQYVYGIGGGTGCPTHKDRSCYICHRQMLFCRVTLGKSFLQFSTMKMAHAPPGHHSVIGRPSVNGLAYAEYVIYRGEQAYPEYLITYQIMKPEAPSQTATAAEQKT

Test [2] has as its target Poly [ADP-ribose] polymerase 2 (Homo sapiens, UniProt Q9UGN5). Kind of test: Inhibition of PARP2 (unknown origin).
A further test deals with T2, Tankyrase 1/2 (Homo sapiens, UniProt Q9H2K2+O95271).
T2 sequence (Q9H2K2 whole entry): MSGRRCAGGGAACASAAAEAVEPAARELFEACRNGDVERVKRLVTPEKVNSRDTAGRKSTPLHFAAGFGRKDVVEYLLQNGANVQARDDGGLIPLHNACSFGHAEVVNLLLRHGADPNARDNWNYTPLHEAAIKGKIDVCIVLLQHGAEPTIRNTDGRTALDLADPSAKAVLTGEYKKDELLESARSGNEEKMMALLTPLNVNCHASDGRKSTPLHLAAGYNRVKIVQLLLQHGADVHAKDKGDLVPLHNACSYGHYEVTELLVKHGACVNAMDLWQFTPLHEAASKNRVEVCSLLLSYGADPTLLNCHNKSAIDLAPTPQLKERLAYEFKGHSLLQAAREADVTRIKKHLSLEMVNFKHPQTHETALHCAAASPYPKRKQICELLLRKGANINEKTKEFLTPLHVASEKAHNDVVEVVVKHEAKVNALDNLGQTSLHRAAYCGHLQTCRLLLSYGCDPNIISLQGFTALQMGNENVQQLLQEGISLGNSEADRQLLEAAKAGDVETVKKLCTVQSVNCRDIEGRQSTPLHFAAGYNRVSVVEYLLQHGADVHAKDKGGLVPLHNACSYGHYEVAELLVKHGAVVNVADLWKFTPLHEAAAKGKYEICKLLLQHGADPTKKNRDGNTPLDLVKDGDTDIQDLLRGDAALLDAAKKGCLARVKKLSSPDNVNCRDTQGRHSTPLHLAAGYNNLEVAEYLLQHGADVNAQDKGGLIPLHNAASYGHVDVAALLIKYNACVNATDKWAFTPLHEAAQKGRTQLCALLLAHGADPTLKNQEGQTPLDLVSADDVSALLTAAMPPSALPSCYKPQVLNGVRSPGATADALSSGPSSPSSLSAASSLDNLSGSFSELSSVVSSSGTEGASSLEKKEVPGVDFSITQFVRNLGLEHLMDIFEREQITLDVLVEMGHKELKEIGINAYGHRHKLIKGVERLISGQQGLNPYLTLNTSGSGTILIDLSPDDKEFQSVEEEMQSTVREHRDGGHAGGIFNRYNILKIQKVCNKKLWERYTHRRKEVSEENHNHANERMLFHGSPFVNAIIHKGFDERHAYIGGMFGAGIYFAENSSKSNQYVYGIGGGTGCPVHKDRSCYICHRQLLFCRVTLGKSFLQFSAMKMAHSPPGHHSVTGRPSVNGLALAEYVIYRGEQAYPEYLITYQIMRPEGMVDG
T2 sequence (O95271 whole entry): T1 sequence (O95271 whole entry)
Conditions: hek293.

The target in test [3] is T3, Poly [ADP-ribose] polymerase tankyrase-2 (Homo sapiens, UniProt Q9H2K2).
T3 sequence (Q9H2K2 whole entry): T2 sequence (Q9H2K2 whole entry)
Nature of the test: Inhibition of N-terminal His6-tagged human TNKS2 (946 to 1162 amino acid residues) after 60 mins by autoparsylation assay.

Sequence of Poly [ADP-ribose] polymerase 2 (Q9UGN5 whole entry): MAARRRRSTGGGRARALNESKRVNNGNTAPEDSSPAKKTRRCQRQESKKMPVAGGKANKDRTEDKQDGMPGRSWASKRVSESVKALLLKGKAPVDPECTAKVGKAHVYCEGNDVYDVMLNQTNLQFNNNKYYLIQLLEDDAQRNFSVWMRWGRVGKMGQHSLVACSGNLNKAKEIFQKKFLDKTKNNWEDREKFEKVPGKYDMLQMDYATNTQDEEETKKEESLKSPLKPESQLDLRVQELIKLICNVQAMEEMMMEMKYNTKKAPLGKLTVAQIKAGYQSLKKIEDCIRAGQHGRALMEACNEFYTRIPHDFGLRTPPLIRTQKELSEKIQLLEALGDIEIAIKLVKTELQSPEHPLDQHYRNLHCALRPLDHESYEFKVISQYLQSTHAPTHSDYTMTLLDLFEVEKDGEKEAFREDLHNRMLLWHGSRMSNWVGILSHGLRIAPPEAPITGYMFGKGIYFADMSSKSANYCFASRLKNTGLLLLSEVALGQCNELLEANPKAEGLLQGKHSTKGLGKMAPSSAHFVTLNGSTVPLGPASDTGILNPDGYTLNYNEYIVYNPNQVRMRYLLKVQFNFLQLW

Consider `COc1ccccc1NC(=O)c1ccc(NC(=O)CCc2nc3ccccc3c(=O)[nH]2)cc1`, for which the IC50 in test [1] was 8 nM; in test [2], 931 nM.
`Cc1ccnc2c(NC(=O)c3ccc(N4C(=O)[C@@H]5[C@H](C4=O)[C@@H]4C=C[C@H]5C4)cc3)cccc12`: the figures for the IC50 (in test [1]; against Tankyrase 1/2; in test [3]) were 192 nM, 163 µM and 36 nM, respectively.
